Molecular target: human F508del-CFTR (Homo sapiens, UniProt P13569, DEL508-508)
Test: F508del-CFTR cell surface expression (corrector activity), DiscoveRx ß-galactosidase complementation chemiluminescence assay in recombinant U2OS cell line;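 note: U2OS cells co-expressing ProLink-tagged F508del-CFTR and a membrane-anchored enzyme acceptor, where more surface CFTR restores β-galactosidase activity measured by chemiluminescence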
Details: for EC50: EC50, F508del-CFTR cell surface expression, U2OS cells, 16h compound incubation, geomean values; for Emax: in relation to Emax of corrector lumacaftor (=100%), arithmetic mean values

Sequence of human F508del-CFTR (P13569 with tags, fused parts or gaps DEL508-508): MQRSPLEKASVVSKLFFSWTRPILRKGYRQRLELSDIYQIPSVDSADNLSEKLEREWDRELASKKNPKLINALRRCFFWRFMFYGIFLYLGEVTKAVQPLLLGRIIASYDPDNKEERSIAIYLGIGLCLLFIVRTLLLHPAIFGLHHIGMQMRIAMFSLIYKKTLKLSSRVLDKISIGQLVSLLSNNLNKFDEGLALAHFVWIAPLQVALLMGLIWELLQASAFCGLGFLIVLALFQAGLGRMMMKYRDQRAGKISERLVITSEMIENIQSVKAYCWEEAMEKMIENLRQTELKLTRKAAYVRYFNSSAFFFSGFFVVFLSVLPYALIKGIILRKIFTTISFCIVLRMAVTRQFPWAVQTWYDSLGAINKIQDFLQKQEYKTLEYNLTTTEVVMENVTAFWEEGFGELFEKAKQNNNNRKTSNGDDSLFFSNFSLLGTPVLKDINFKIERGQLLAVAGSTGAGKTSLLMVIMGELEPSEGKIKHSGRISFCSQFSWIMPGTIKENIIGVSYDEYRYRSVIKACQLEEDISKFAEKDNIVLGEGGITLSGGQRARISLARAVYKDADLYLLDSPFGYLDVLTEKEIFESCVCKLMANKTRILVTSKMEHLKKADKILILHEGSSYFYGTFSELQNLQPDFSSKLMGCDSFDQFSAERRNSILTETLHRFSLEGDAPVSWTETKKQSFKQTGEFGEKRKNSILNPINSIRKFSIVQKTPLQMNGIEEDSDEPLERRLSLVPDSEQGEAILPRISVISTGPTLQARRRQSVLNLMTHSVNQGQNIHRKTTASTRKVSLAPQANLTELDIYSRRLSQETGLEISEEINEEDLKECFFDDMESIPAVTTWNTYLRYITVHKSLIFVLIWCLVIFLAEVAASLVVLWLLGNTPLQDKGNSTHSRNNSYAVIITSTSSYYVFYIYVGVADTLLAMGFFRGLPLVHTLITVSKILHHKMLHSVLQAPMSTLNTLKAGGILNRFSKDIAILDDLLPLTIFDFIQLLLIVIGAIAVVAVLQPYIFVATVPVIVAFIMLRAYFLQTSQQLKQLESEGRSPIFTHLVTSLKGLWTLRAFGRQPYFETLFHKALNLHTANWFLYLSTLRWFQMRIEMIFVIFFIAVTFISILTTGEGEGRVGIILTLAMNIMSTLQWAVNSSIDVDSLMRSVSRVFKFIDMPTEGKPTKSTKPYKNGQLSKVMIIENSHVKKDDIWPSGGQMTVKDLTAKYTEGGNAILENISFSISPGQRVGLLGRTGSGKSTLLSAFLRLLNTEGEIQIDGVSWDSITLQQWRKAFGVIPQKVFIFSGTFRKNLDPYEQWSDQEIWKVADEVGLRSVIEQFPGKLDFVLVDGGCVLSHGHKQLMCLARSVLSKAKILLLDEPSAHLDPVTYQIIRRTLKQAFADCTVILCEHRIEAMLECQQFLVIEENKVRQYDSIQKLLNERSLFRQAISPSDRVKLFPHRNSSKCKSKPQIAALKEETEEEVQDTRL

Compound	EC50	Emax	Emax (U2OS)
CC(C)C[C@H]1C(=O)N(C)[C@@H](CC2CCC(F)(F)CC2)C(=O)N[C@H](Cc2ccccc2)COc2cnc3ccc(F)cc3c2C(=O)N[C@H](C(=O)NCCc2noc(C3CC3)n2)CC(=O)N1C [Example 540, (3S,7S,10S,13R)-13-benzyl-N-(2-(5-cyclopropyl-1,2,4-oxadiazol-3-yl)ethyl)-10-((4,4-difluorocyclohexyl)methyl)-20-fluoro-7-isobutyl-6,9-dimethyl-1,5,8,11-tetraoxo-1,2,3,4,5,6,7,8,9,10,11,12,13,14-tetradecahydro-[1]oxa[4,7,10,14]tetraazacycloheptadecino[17,16-c]quinoline-3-carboxamide]	269 nM	256%	
CC(C)C[C@H]1C(=O)N2CCCC[C@@H]2C(=O)N[C@H](Cc2ccccc2)COc2ccc3ncc(F)cc3c2C(=O)N[C@H](C(=O)NCCc2noc(C3CC3)n2)CC(=O)N1C [Example 541, (9S,13S,19aR,22R)-22-benzyl-N-(2-(5-cyclopropyl-1,2,4-oxadiazol-3-yl)ethyl)-5-fluoro-13-isobutyl-12-methyl-7,11,14,20-tetraoxo-7,8,9,10,11,12,13,14,17,18,19,19a,20,21,22,23-hexadecahydro-16H-pyrido[2′,1′:6,7][1]oxa[4,7,10,14]tetraazacycloheptadecino[16,17-f]quinoline-9-carboxamide]	185 nM		357%
COc1nccc2c1C(=O)N[C@H](C(=O)NCCc1cc(C)no1)CC(=O)N(C)[C@@H](CC(C)C)C(=O)N1CCN(c3ccccc3)C[C@@H]1C(=O)N[C@H](Cc1ccccc1)CO2 [Example 542, (7S,11S,20R,22aR)-20-benzyl-7-isobutyl-14-methoxy-8-methyl-N-(2-(3-methylisoxazol-5-yl)ethyl)-6,9,13,22-tetraoxo-2-phenyl-1,3,4,6,7,8,9,10,11,12,13,19,20,21,22,22a-hexadecahydro-2H-pyrazino[2,1-f]pyrido[3,4-p][1]oxa[4,7,10,14]tetraazacycloheptadecine-11-carboxamide]	368 nM		334%
CC(C)C[C@H]1C(=O)N(C)C2(CC2)C(=O)N[C@H](Cc2ccccc2)COc2ccc3ncccc3c2C(=O)N[C@H](C(=O)NCCc2cc(C3CC3)no2)CC(=O)N1C [Example 543, (3′S,7′S,13′R)-13′-benzyl-N-(2-(3-cyclopropylisoxazol-5-yl)ethyl)-7′-isobutyl-6′,9′-dimethyl-1′,5′,8′,11′-tetraoxo-2′,3′,4′,5′,6′,7′,8′,9′,11′,12′,13′,14′-dodecahydro-1′H-spiro[cyclopropane-1,10′-[1]oxa[4,7,10,14]tetraazacycloheptadecino[16,17-f]quinoline]-3′-carboxamide]	785 nM		399%
CC(C)C[C@H]1C(=O)N(C)C2(CC2)C(=O)N[C@H](Cc2ccccc2)COc2ccc3ncccc3c2C(=O)N[C@H](C(=O)NCCc2noc(C3CC3)n2)CC(=O)N1C [Example 544, (3′S,7′S,13′R)-13′-benzyl-N-(2-(5-cyclopropyl-1,2,4-oxadiazol-3-yl)ethyl)-7′-isobutyl-6′,9′-dimethyl-1′,5′,8′,11′-tetraoxo-2′,3′,4′,5′,6′,7′,8′,9′,11′,12′,13′,14′-dodecahydro-1′H-spiro[cyclopropane-1,10′-[1]oxa[4,7,10,14]tetraazacycloheptadecino[16,17-f]quinoline]-3′-carboxamide]	774 nM		398%
CC(C)C[C@H]1C(=O)N(C)C2(CC2)C(=O)N[C@H](Cc2ccccc2)COc2ccc3ncc(F)cc3c2C(=O)N[C@H](C(=O)NCCc2cc(C3CC3)no2)CC(=O)N1C [Example 545, (3′S,7′S,13′R)-13′-benzyl-N-(2-(3-cyclopropylisoxazol-5-yl)ethyl)-20′-fluoro-7′-isobutyl-6′,9′-dimethyl-1′,5′,8′,11′-tetraoxo-2′,3′,4′,5′,6′,7′,8′,9′,11′,12′,13′,14′-dodecahydro-1′H-spiro[cyclopropane-1,10′-[1]oxa[4,7,10,14]tetraazacycloheptadecino[16,17-f]quinoline]-3′-carboxamide]	349 nM		385%
CC(C)C[C@H]1C(=O)N(C)C2(CC2)C(=O)N[C@H](Cc2ccccc2)COc2ccc3ncc(F)cc3c2C(=O)N[C@H](C(=O)NCCc2noc(C3CC3)n2)CC(=O)N1C [Example 546, (3′S,7′S,13′R)-13′-benzyl-N-(2-(5-cyclopropyl-1,2,4-oxadiazol-3-yl)ethyl)-20′-fluoro-7′-isobutyl-6′,9′-dimethyl-1′,5′,8′,11′-tetraoxo-2′,3′,4′,5′,6′,7′,8′,9′,11′,12′,13′,14′-dodecahydro-1′H-spiro[cyclopropane-1,10′-[1]oxa[4,7,10,14]tetraazacycloheptadecino[16,17-f]quinoline]-3′-carboxamide]	350 nM		411%
Cc1cc(CCNC(=O)[C@@H]2CC(=O)N(C)[C@@H](CC(C)C)C(=O)N(C)[C@H](C(C)C)C(=O)N[C@H](Cc3ccccc3)COc3cnc4ccccc4c3C(=O)N2)on1 [Example 547, (3S,7S,10R,13R)-13-benzyl-7-isobutyl-10-isopropyl-6,9-dimethyl-N-(2-(3-methylisoxazol-5-yl)ethyl)-1,5,8,11-tetraoxo-1,2,3,4,5,6,7,8,9,10,11,12,13,14-tetradecahydro-[1]oxa[4,7,10,14]tetraazacycloheptadecino[17,16-c]quinoline-3-carboxamide]	281 nM		330%
Cc1cc(CCNC(=O)[C@@H]2CC(=O)N(C)[C@@H](CC(C)C)C(=O)N(C)[C@H](CC(C)C)C(=O)N[C@H](Cc3ccccc3)COc3cnc4ccccc4c3C(=O)N2)on1 [Example 548, (3S,7S,10R,13R)-13-benzyl-7,10-diisobutyl-6,9-dimethyl-N-(2-(3-methylisoxazol-5-yl)ethyl)-1,5,8,11-tetraoxo-1,2,3,4,5,6,7,8,9,10,11,12,13,14-tetradecahydro-[1]oxa[4,7,10,14]tetraazacycloheptadecino[17,16-c]quinoline-3-carboxamide]	106 nM		326%
COc1cccc(CCNC(=O)[C@@H]2CC(=O)N(C)[C@@H](CC(C)C)C(=O)N3CCN(c4ccccc4)C[C@H]3C(=O)N[C@H](Cc3ccccc3)COc3ccnc(OC)c3C(=O)N2)c1 [Example 549, (7S,11S,20R,22aS)-20-benzyl-7-isobutyl-14-methoxy-N-(3-methoxyphenethyl)-8-methyl-6,9,13,22-tetraoxo-2-phenyl-1,3,4,6,7,8,9,10,11,12,13,19,20,21,22,22a-hexadecahydro-2H-pyrazino[2,1-f]pyrido[3,4-p][1]oxa[4,7,10,14]tetraazacycloheptadecine-11-carboxamide]	166 nM		167%
COc1nccc2c1C(=O)N[C@H](C(=O)NCCc1cc(C)no1)CC(=O)N(C)[C@@H](CC(C)C)C(=O)N1CCN(c3ccccc3)C[C@H]1C(=O)N[C@H](Cc1ccccc1)CO2 [Example 550, (7S,11S,20R,22aS)-20-benzyl-7-isobutyl-14-methoxy-8-methyl-N-(2-(3-methylisoxazol-5-yl)ethyl)-6,9,13,22-tetraoxo-2-phenyl-1,3,4,6,7,8,9,10,11,12,13,19,20,21,22,22a-hexadecahydro-2H-pyrazino[2,1-f]pyrido[3,4-p][1]oxa[4,7,10,14]tetraazacycloheptadecine-11-carboxamide]	687 nM		129%
COc1cccc(CCNC(=O)[C@@H]2CC(=O)N(C)[C@@H](CC(C)C)C(=O)N(C)C3(CC3)C(=O)N[C@H](Cc3ccccc3)COc3ccc4cc(C)oc4c3C(=O)N2)c1 [Example 551, (8R,14S,18S)-8-benzyl-14-isobutyl-N-(3-methoxyphenethyl)-2,12,15-trimethyl-10,13,16,20-tetraoxo-7,8,9,10,13,14,15,16,17,18,19,20-dodecahydro-12H-spiro[benzofuro[7,6-p][1]oxa[4,7,10,14]tetraazacycloheptadecine-11,1′-cyclopropane]-18-carboxamide]	222 nM		317%
Cc1cc2ccc3c(c2o1)C(=O)N[C@H](C(=O)NCCc1cc(C2CC2)no1)CC(=O)N(C)[C@@H](CC(C)C)C(=O)N(C)C1(CC1)C(=O)N[C@H](Cc1ccccc1)CO3 [Example 552, (8R,14S,18S)-8-benzyl-N-(2-(3-cyclopropylisoxazol-5-yl)ethyl)-14-isobutyl-2,12,15-trimethyl-10,13,16,20-tetraoxo-7,8,9,10,13,14,15,16,17,18,19,20-dodecahydro-12H-spiro[benzofuro[7,6-p][1]oxa[4,7,10,14]tetraazacycloheptadecine-11,1′-cyclopropane]-18-carboxamide]	413 nM		358%
Cc1cc2ccc3c(c2o1)C(=O)N[C@H](C(=O)NCCc1noc(C2CC2)n1)CC(=O)N(C)[C@@H](CC(C)C)C(=O)N(C)C1(CC1)C(=O)N[C@H](Cc1ccccc1)CO3 [Example 553, (8R,14S,18S)-8-benzyl-N-(2-(5-cyclopropyl-1,2,4-oxadiazol-3-yl)ethyl)-14-isobutyl-2,12,15-trimethyl-10,13,16,20-tetraoxo-7,8,9,10,13,14,15,16,17,18,19,20-dodecahydro-12H-spiro[benzofuro[7,6-p][1]oxa[4,7,10,14]tetraazacycloheptadecine-11,1′-cyclopropane]-18-carboxamide]	287 nM		304%
Cc1cc2ccc3c(c2o1)C(=O)N[C@H](C(=O)NCCc1nc(C2CC2)no1)CC(=O)N(C)[C@@H](CC(C)C)C(=O)N(C)C1(CC1)C(=O)N[C@H](Cc1ccccc1)CO3 [Example 554, (8R,14S,18S)-8-benzyl-N-(2-(3-cyclopropyl-1,2,4-oxadiazol-5-yl)ethyl)-14-isobutyl-2,12,15-trimethyl-10,13,16,20-tetraoxo-7,8,9,10,13,14,15,16,17,18,19,20-dodecahydro-12H-spiro[benzofuro[7,6-p][1]oxa[4,7,10,14]tetraazacycloheptadecine-11,1′-cyclopropane]-18-carboxamide]	324 nM		310%

— patent publication US20240208992A1, “MACROCYCLES AS CFTR MODULATORS” (Idorsia Pharmaceuticals Ltd, priority 2021, published 2024)
